{"source": "PubChem BioAssay (NCI)", "test_in_all_cases": "DTP human tumour cell line panel, 48 h", "key": {"PC-3 prostate": {"tested_on": "PC-3 prostate"}, "OVCAR-8 ovarian": {"tested_on": "OVCAR-8 ovarian"}, "786-0 renal": {"tested_on": "786-0 renal"}, "SF-268 CNS": {"tested_on": "SF-268 CNS"}, "A549 NSCLC": {"tested_on": "A549 NSCLC"}, "OVCAR-4 ovarian": {"tested_on": "OVCAR-4 ovarian"}, "RXF 393 renal": {"tested_on": "RXF 393 renal"}, "SN12C renal": {"tested_on": "SN12C renal"}, "MDA-MB-468 breast": {"tested_on": "MDA-MB-468 breast"}, "UACC-62 melanoma": {"tested_on": "UACC-62 melanoma"}, "OVCAR-3 ovarian": {"tested_on": "OVCAR-3 ovarian"}, "HS 578T breast": {"tested_on": "HS 578T breast"}, "SK-MEL-5 melanoma": {"tested_on": "SK-MEL-5 melanoma"}, "MALME-3M melanoma": {"tested_on": "MALME-3M melanoma"}, "KM12 colon": {"tested_on": "KM12 colon"}, "EKVX NSCLC": {"tested_on": "EKVX NSCLC"}, "M14 melanoma": {"tested_on": "M14 melanoma"}, "RPMI-8226 leukemia": {"tested_on": "RPMI-8226 leukemia"}, "T-47D breast": {"tested_on": "T-47D breast"}, "U251 CNS": {"tested_on": "U251 CNS"}, "NCI/ADR-RES ovarian": {"tested_on": "NCI/ADR-RES ovarian"}, "HCT-15 colon": {"tested_on": "HCT-15 colon"}, "TK-10 renal": {"tested_on": "TK-10 renal"}, "SW-620 colon": {"tested_on": "SW-620 colon"}, "HCC-2998 colon": {"tested_on": "HCC-2998 colon"}, "IGROV1 ovarian": {"tested_on": "IGROV1 ovarian"}, "SF-295 CNS": {"tested_on": "SF-295 CNS"}, "CCRF-CEM leukemia": {"tested_on": "CCRF-CEM leukemia"}}, "note": "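How tested: cells in 96-well plates exposed to compound for 48 hours at five concentrations. Abbreviation: GI50, concentration required for 50% inhibition of growth. TGI marks complete inhibition of growth.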"}
{"smiles": "O=C1NC(=S)/C(=C/c2cn(-c3ccccc3)nc2-c2ccccc2)S1", "values": [{"measurement": "TGI", "setting": "PC-3 prostate", "result": "> 100", "unit": "µM"}, {"measurement": "GI50", "setting": "OVCAR-8 ovarian", "result": 16.1, "unit": "µM"}, {"measurement": "TGI", "setting": "OVCAR-8 ovarian", "result": 80.8, "unit": "µM"}, {"measurement": "GI50", "setting": "786-0 renal", "result": 4.79, "unit": "µM"}, {"measurement": "TGI", "setting": "786-0 renal", "result": "> 100", "unit": "µM"}, {"measurement": "GI50", "setting": "SF-268 CNS", "result": 6.07, "unit": "µM"}, {"measurement": "TGI", "setting": "SF-268 CNS", "result": "> 100", "unit": "µM"}, {"measurement": "GI50", "setting": "A549 NSCLC", "result": 6.74, "unit": "µM"}, {"measurement": "TGI", "setting": "A549 NSCLC", "result": "> 100", "unit": "µM"}, {"measurement": "GI50", "setting": "OVCAR-4 ovarian", "result": 5.24, "unit": "µM"}, {"measurement": "TGI", "setting": "OVCAR-4 ovarian", "result": "> 100", "unit": "µM"}, {"measurement": "GI50", "setting": "RXF 393 renal", "result": 17.1, "unit": "µM"}, {"measurement": "TGI", "setting": "RXF 393 renal", "result": 71.6, "unit": "µM"}, {"measurement": "GI50", "setting": "SN12C renal", "result": 4.73, "unit": "µM"}, {"measurement": "TGI", "setting": "SN12C renal", "result": "> 100", "unit": "µM"}, {"measurement": "GI50", "setting": "MDA-MB-468 breast", "result": 3.13, "unit": "µM"}, {"measurement": "TGI", "setting": "MDA-MB-468 breast", "result": 21.8, "unit": "µM"}, {"measurement": "GI50", "setting": "UACC-62 melanoma", "result": 3.49, "unit": "µM"}, {"measurement": "TGI", "setting": "UACC-62 melanoma", "result": 15.3, "unit": "µM"}, {"measurement": "GI50", "setting": "OVCAR-3 ovarian", "result": 7.1, "unit": "µM"}, {"measurement": "TGI", "setting": "OVCAR-3 ovarian", "result": 27.1, "unit": "µM"}, {"measurement": "GI50", "setting": "HS 578T breast", "result": 5.73, "unit": "µM"}, {"measurement": "TGI", "setting": "HS 578T breast", "result": 91.6, "unit": "µM"}, {"measurement": "GI50", "setting": "SK-MEL-5 melanoma", "result": 2.59, "unit": "µM"}, {"measurement": "TGI", "setting": "SK-MEL-5 melanoma", "result": 7.45, "unit": "µM"}, {"measurement": "GI50", "setting": "MALME-3M melanoma", "result": 4.85, "unit": "µM"}, {"measurement": "TGI", "setting": "MALME-3M melanoma", "result": 35.8, "unit": "µM"}, {"measurement": "GI50", "setting": "KM12 colon", "result": 5.8, "unit": "µM"}, {"measurement": "TGI", "setting": "KM12 colon", "result": 40.2, "unit": "µM"}, {"measurement": "GI50", "setting": "EKVX NSCLC", "result": 4.1, "unit": "µM"}, {"measurement": "TGI", "setting": "EKVX NSCLC", "result": "> 100", "unit": "µM"}, {"measurement": "GI50", "setting": "M14 melanoma", "result": 4.82, "unit": "µM"}, {"measurement": "TGI", "setting": "M14 melanoma", "result": "> 100", "unit": "µM"}, {"measurement": "GI50", "setting": "RPMI-8226 leukemia", "result": 3.57, "unit": "µM"}, {"measurement": "TGI", "setting": "RPMI-8226 leukemia", "result": 94.7, "unit": "µM"}, {"measurement": "GI50", "setting": "T-47D breast", "result": 4.41, "unit": "µM"}, {"measurement": "TGI", "setting": "T-47D breast", "result": "> 100", "unit": "µM"}, {"measurement": "GI50", "setting": "U251 CNS", "result": 7.49, "unit": "µM"}, {"measurement": "TGI", "setting": "U251 CNS", "result": "> 100", "unit": "µM"}, {"measurement": "GI50", "setting": "NCI/ADR-RES ovarian", "result": 7.3, "unit": "µM"}, {"measurement": "TGI", "setting": "NCI/ADR-RES ovarian", "result": "> 100", "unit": "µM"}, {"measurement": "GI50", "setting": "HCT-15 colon", "result": 4.29, "unit": "µM"}, {"measurement": "TGI", "setting": "HCT-15 colon", "result": 33.8, "unit": "µM"}, {"measurement": "GI50", "setting": "TK-10 renal", "result": 12.5, "unit": "µM"}, {"measurement": "TGI", "setting": "TK-10 renal", "result": "> 100", "unit": "µM"}, {"measurement": "GI50", "setting": "SW-620 colon", "result": 9.67, "unit": "µM"}, {"measurement": "TGI", "setting": "SW-620 colon", "result": "> 100", "unit": "µM"}, {"measurement": "GI50", "setting": "HCC-2998 colon", "result": 10.6, "unit": "µM"}, {"measurement": "TGI", "setting": "HCC-2998 colon", "result": 44.6, "unit": "µM"}, {"measurement": "GI50", "setting": "IGROV1 ovarian", "result": 6.46, "unit": "µM"}, {"measurement": "TGI", "setting": "IGROV1 ovarian", "result": 45.2, "unit": "µM"}, {"measurement": "GI50", "setting": "SF-295 CNS", "result": 8.61, "unit": "µM"}, {"measurement": "TGI", "setting": "SF-295 CNS", "result": 32.7, "unit": "µM"}, {"measurement": "GI50", "setting": "CCRF-CEM leukemia", "result": 4.35, "unit": "µM"}, {"measurement": "TGI", "setting": "CCRF-CEM leukemia", "result": "> 100", "unit": "µM"}]}
